# Source: patent US20040039047A1 (priority 1998, published 2004)
# Columns and labels:
# [1] = system: human epidennoid cells, virally infected with HSV-2; details: cited from earlier work
# [2] = system: human epidennoid cells, virally infected with HSV-2
# [3] = system: human epidennoid cells, virally infected with HSV-2; details: cited from earlier work; remark: listed apart in the source
compound,measurement,setting,value
CC(=O)OC[C@]12CCC(C)=C[C@H]1O[C@@H]1[C@H](O)[C@@H](OC(C)=O)[C@@]2(C)[C@]12CO2 [DAS],cell viability,[1],Neither reduced cell viability
same,"Trichothecene in vitro concentration, Cytotoxic Hi",[2],200 ng/mL
same,"Trichothecene in vitro concentration, Cytotoxic Lo",[2],6 ng/mL
same,"Trichothecene in vitro concentration, Inhibitory 80%",[3],4.0 ng/mL
same,"Trichothecene in vitro concentration, Inhibitory 100%",[3],5.0 ng/mL
